Reference: EP4803080A1, “METHOD FOR TREATING LEUKEMIA” (Shenzhen TargetRx Co., Ltd., priority 2023, dated 2025)

Experiments:
[1] = tested on: CML-AP with T315I mutation; assay: Phase I dose escalation and dose expansion clinical trial: efficacy in CML-AP subjects with T315I mutation; type: in vivo, humans
Text: This study is a single-arm, open-label, dose-escalation and dose-expansion Phase I clinical trial.
The dose-escalation phase of this trial consists of about 8 dose groups, with oral administration under fasting conditions. Subjects in all dose groups will receive a single dose on Day 1 (D1), followed by pharmacokinetic (PK) and tolerability observations. […] After entering the multiple-dose period, subjects in the first dose group will initially receive twice-daily (BID) dosing (if PK data from the single-dose period are available, the dosing frequency during the multiple-dose period may be adjusted based on the PK data). The dosing frequency for subjects in subsequent dose groups after entering the multiple-dose period will be determined based on available PK and tolerability data. Throughout the trial, dosing frequency for all subjects may be adjusted based on continuously updated safety and PK data.
A continuous reassessment method (CRM) based on the principle of the escalation with overdose control (EWOC) design will be used to recommend the next specific dose for each dose escalation, thereby completing dose escalation and determining the maximum tolerated dose (MTD). If both the investigator and sponsor believe that higher dose groups may offer better efficacy and manageable safety, the EWOC-based CRM method may be used to explore higher doses. All enrolled subjects will receive long-term treatment with the test drug and undergo evaluations for safety, tolerability, and preliminary efficacy.
After obtaining certain research data from the dose-escalation phase, the investigator may comprehensively consider safety, efficacy, and other information to decide whether to enroll additional subjects at the MTD and/or lower dose levels to determine the recommended Phase II dose (RP2D). Two to four suitable dosing regimens will be selected for expansion in the target population (including subjects enrolled at the target dose levels during the escalation phase).
A total of 8 dose groups were established: 10 mg bid, 20 mg bid, 40 mg bid, 80 mg bid, 40 mg qd, 80 mg qd, 160 mg qd, and 240 mg qd.
The dose expansion phase was conducted in the following 3 cohorts: • Cohort 1: Subjects with chronic phase (CP) chronic myeloid leukemia (CML) who had previously received at least ≥2 different TKIs and were T315I-negative. A total of 3 dose groups were established: 40 mg qd, 80 mg qd, and 240 mg qd; • Cohort 2: Subjects with chronic phase (CP) chronic myeloid leukemia (CML) who have previously received ≥1 TKI and were T315I-positive. A total of 2 dose groups were established: 40 mg qd and 240 mg qd; • Cohort 3: Subjects with accelerated phase (AP) chronic myeloid leukemia (CML) who have previously received ≥1 TKI, regardless of T315I positivity. A total of 1 dose group was established: 240 mg qd.

SUP-B15 cells = assay: Efficacy study in the SUP-B15 subcutaneous xenograft model; type: in vivo; settings: for TGI (%): after 21 days of administration
Procedure: SUP-B15 cells, a Philadelphia chromosome-positive acute lymphoblastic leukemia cell line, were cultured in vitro using IMDM medium supplemented with 20% fetal bovine serum. When the cell count reached the required level, the cells were harvested, counted, and inoculated.
Animals: NCG mice, female, aged 6-8 weeks, weighing 18-22 grams. A total of 35 mice (including 15 spare mice) were used. The mice were provided by Jiangsu GemPharmatech Co., Ltd. or other qualified suppliers.
Tumor inoculation: 0.1 mL (10×10^6 cells) SUP-B15 cells and 0.1 mL Matrigel (total volume 0.2 mL) were mixed thoroughly and subcutaneously inoculated into the right back of each mouse.
Animal grouping and dosing: Grouping and dosing began when the average tumor volume reached 150-200 mm^3.
Animal Grouping: Animals were weighed and tumor volumes were measured prior to drug administration. Grouping was performed randomly based on tumor volume.
Observation: Daily monitoring of animal health status and mortality, routine checks include observing tumor growth and the impact of drug treatment on daily behavioral performance such as activity levels, food and water intake, weight changes (measured twice a week or every other day), external signs, or other abnormalities. The number of animal deaths and side effects within each group based on the number of animals in each group were recorded.
Test indicators: The test indicators were to examine whether tumor growth is inhibited, delayed, or cured. Tumor diameter was measured three times a week using a vernier caliper. The formula for calculating tumor volume was: V = 0.5a × b^2, where a and b represent the long and short diameters of the tumor, respectively.
The antitumor efficacy of the compounds was evaluated using TGI (%) or the relative tumor proliferation rate T/C (%). TGI (%) reflects the tumor growth inhibition rate.
Relative Tumor Proliferation Rate T/C (%): The calculation formula is as follows: T/C % = TRTV / CRTV × 100% (TRTV: treatment group RTV; CRTV: negative control group RTV). The relative tumor volume (RTV) is calculated based on tumor measurement results, with the formula RTV = Vt / V0, where V0 is the average tumor volume measured at the time of grouping (i.e., d0), and Vt is the average tumor volume at a specific measurement time. TRTV and CRTV use data from the same day.
At the end of the test, tumor weight will be measured, and the Tweight/Cweight percentage will be calculated, where Tweight and Cweight represent the tumor weights of the treatment group and the vehicle control group, respectively.
Data analysis: T-test is used for comparisons between two groups. One-way ANOVA is used for comparisons among three or more groups. […] All data analyses are performed using SPSS 17.0. A p < 0.05 is considered statistically significant.

[2] = CML-AP and T315I mutation, failed or intolerant to third-generation or later TKI therapy
[3] = CML-AP and T315I mutation, failed or intolerant to third-generation or later TKI therapy, 12 evaluable
[4] = CML-AP and T315I mutation, failed or intolerant to third-generation or later TKI therapy, Kaplan-Meier method
[5] = CML-AP subjects with T315I mutation, as of June 2, 2024

O=C(Nc1ccc(OC(F)(F)Cl)cc1)c1cnc(N2CC[C@@H](F)C2)c(-c2cnccn2)c1 [Compound A, (R)-N-(4-(chlorodifluoromethoxy)phenyl)-6-(3-fluoropyrrolidin-1-yl)-5-(pyrazin-2-yl)nicotinamide]
median EFS [1, 2]: 5.55 months
median PFS [1, 2]: not reached
median duration of MaHR response [1, 2]: 11.93 months
median time to achieve CCyR [1, 2]: 4.19 (2.76, 5.62) months
median time to achieve MCyR [1, 2]: 2.69 (2.69, 2.76) months
CCyR [1, 3]: 16.7%
MCyR [1, 3]: 25.0%
MMR [1, 3]: 8.3%
MaHR ([1]; CML-AP and T315I mutation, failed or intolerant to third-generation or later TKI therapy, 13 evaluable): 76.9%
12-month EFS rate [1, 4]: 18.0%
12-month PFS rate [1, 4]: 75.8%
18-month cumulative incidence rate of CCyR [1, 5]: 30%
18-month cumulative incidence rate of MCyR [1, 5]: 36%
18-month cumulative incidence rate of MMR [1, 5]: 15%
TGI (%) (SUP-B15 cells; 5 mg/kg p.o. qd): 119.5%
TGI (%) (SUP-B15 cells; 15 mg/kg p.o. qd): 124.7%
TGI (%) (SUP-B15 cells; 45 mg/kg p.o. qd): 125.6%
weight loss (SUP-B15 cells; any treatment group (5, 15, 45 mg/kg p.o. qd × 3 weeks)): No significant weight loss
